# From patent US20220402882A1, “HERBICIDAL COMPOUNDS” (SYNGENTA CROP PROTECTION AG, priority 2019, published 2022)
# Columns and labels:
# Assay type in all cases: in vivo
# Conditions in all cases: 125 g/h, evaluated after 13 days
# [1] = test system: Ipomoea hederacea (IPOHE); assay: Pre-emergence glasshouse herbicide test
# Protocol: (§1) Seeds of a variety of test species are sown in standard soil in pots (Lolium perenne (LOLPE), Amaranthus retoflexus (AMARE), Abutilon theophrasti (ABUTH), Setaria faberi (SETFA), Echinochloa crus-galli (ECHCG), Ipomoea hederacea (IPOHE)). After cultivation for one day (pre-emergence) or after 8 days cultivation (post-emergence) under controlled conditions in a glasshouse (at 24/16° C., day/night; 14 hours light; 65% humidity), the plants are sprayed with an aqueous spray solution derived from the formulation of the technical active ingredient in acetone/water (50:50) solution containing 0.5% Tween™ 20 (polyoxyethelyene sorbitan monolaurate, CAS RN 9005-64-5). Compounds are applied at 125 g/h unless otherwise indicated. The test plants are then grown in a glasshouse under controlled conditions in a glasshouse (at 24/16° C., day/night; 14 hours light; 65% humidity) and watered twice daily. After 13 days for pre- and post-emergence, the test is evaluated for the percentage damage caused to the plant. The biological activities are shown in the following table on a five-point scale (5=80-100%; 4=60-79%; 3=40-59%; 2=20-39%; 1=0-19%).
# [2] = test system: Amaranthus retoflexus (AMARE); assay: Pre-emergence glasshouse herbicide test
# Protocol: as §1
# [3] = test system: Echinochloa crus-galli (ECHCG); assay: Pre-emergence glasshouse herbicide test
# Protocol: as §1
# [4] = test system: Abutilon theophrasti (ABUTH); assay: Pre-emergence glasshouse herbicide test
# Protocol: as §1
# Setaria faberi (SETFA) [5] = assay: Pre-emergence glasshouse herbicide test
# Protocol: as §1
# [6] = test system: Ipomoea hederacea (IPOHE); assay: Post-emergence glasshouse herbicide test
# Protocol: as §1
# [7] = test system: Amaranthus retoflexus (AMARE); assay: Post-emergence glasshouse herbicide test
# Protocol: as §1
# [8] = test system: Echinochloa crus-galli (ECHCG); assay: Post-emergence glasshouse herbicide test
# Protocol: as §1
# [9] = test system: Abutilon theophrasti (ABUTH); assay: Post-emergence glasshouse herbicide test
# Protocol: as §1
# Setaria faberi (SETFA) [10] = assay: Post-emergence glasshouse herbicide test
# Protocol: as §1
SMILES,"percentage damage caused to the plant, IPOHE [1]","percentage damage caused to the plant, AMARE [2]","percentage damage caused to the plant, ECHCG [3]","percentage damage caused to the plant, ABUTH [4]","percentage damage caused to the plant, SETFA (Setaria faberi (SETFA) [5])","percentage damage caused to the plant, IPOHE [6]","percentage damage caused to the plant, AMARE [7]","percentage damage caused to the plant, ECHCG [8]","percentage damage caused to the plant, ABUTH [9]","percentage damage caused to the plant, SETFA (Setaria faberi (SETFA) [10])"
CC[S+]([O-])c1c(OCC(F)(F)F)ccc(C(=O)Nc2nnnn2C)c1C (centres unmarked) [Compound 1.039],4 (4=60-79%),5 (5=80-100%),4 (4=60-79%),5 (5=80-100%),4 (4=60-79%),4 (4=60-79%),5 (5=80-100%),5 (5=80-100%),5 (5=80-100%),5 (5=80-100%)
CCn1nnnc1NC(=O)c1ccc(OCC(F)(F)F)c(S(=O)(=O)CC)c1Cl [Compound 1.065],3 (3=40-59%),5 (5=80-100%),5 (5=80-100%),5 (5=80-100%),5 (5=80-100%),4 (4=60-79%),5 (5=80-100%),5 (5=80-100%),5 (5=80-100%),5 (5=80-100%)
CCSc1c(OC(F)F)ccc(C(=O)Nc2nnnn2C)c1C [Compound 1.028],3 (3=40-59%),5 (5=80-100%),5 (5=80-100%),5 (5=80-100%),5 (5=80-100%),5 (5=80-100%),5 (5=80-100%),5 (5=80-100%),5 (5=80-100%),5 (5=80-100%)
"CSc1c(OC(F)(F)C(F)F)ccc(C(=O)Nc2nnnn2C)c1Cl [Compound 1.009, 2-chloro-3-methylsulfanyl-N-(1-methyltetrazol-5-yl)-4-(1,1,2,2-tetrafluoroethoxy)benzamide]",3 (3=40-59%),5 (5=80-100%),5 (5=80-100%),4 (4=60-79%),5 (5=80-100%),4 (4=60-79%),4 (4=60-79%),4 (4=60-79%),4 (4=60-79%),4 (4=60-79%)
CCCSc1c(OC(F)F)ccc(C(=O)Nc2nnnn2C)c1Cl [Compound 1.066],3 (3=40-59%),5 (5=80-100%),5 (5=80-100%),5 (5=80-100%),5 (5=80-100%),5 (5=80-100%),5 (5=80-100%),4 (4=60-79%),5 (5=80-100%),4 (4=60-79%)
